Like-named read-outs stand apart in the source and are kept apart here.
Experiments:
[1] = tested on: MV-4-11 cells; experiment: Oncology cell growth assay MV-4-11 (CellTiter Glo); format: cell-based; conditions: Homo sapiens, MV4-11, 72 h, read-out: Cell activity (IC50 μM) MV-4-11 3d-Growth
Excerpt: Published bromodomain inhibitors JQ1 and iBET 151 have shown activity in variety of cancer cells such leukemia and lymphoma, multiple myeloma cells, NUT midline carcinoma and glioblastoma cells (Dawson M A et al. 2011; Delmore J E 2011; Chen Z et al. 2013; Filippakopoulos P et al. 2010; Mertz J A et al. 2011; Ott C J et al. 2012). In this study, we test compounds in different cancer cell lines. MV-4-11 and MOLM-13 are AML cell lines harboring a MLL-AF4 and MLL-AF9 translocation, respectively. MM.1S is a multiple myeloma cell line. SK-N-AS, IMR-32 and SK-N-BE(2) are neuroblastoma cell lines. IMR-32 and SK-N-BE(2) cell lines harbor MYCN amplifications.
MV-4-11, MM.1S, IMR-32, SK-N-AS and SK-N-BE(2) were obtained from ATCC (IL, USA) and MOLM-13 were purchased from DSMZ (Braunschweig, German). Cells are cultured as recommended by their sources. For growth inhibition studies 3000 cells are seeded in wells of a 96-well plate in 75 μL of culture media. After several hours, growth media containing compounds of formula (I) are added to the wells. Compound at a maximal concentration of 5 mM was serially diluted 1:3 for a total of 8 point titration with DMSO as a control. A 1 μL aliquot of each dilution point is added to 249 μL growth media and 75 μL is added to each well containing cells, providing 10 μM compound at the maximum concentration point. The final concentration of DMSO in all wells is 0.2%. Cells are incubated for 72 hours, and 25 μL of CellTiter Glo Reagent (Promega GA, USA) is added to each well. Plates are shaken for approximately 10 minutes and chemiluminescent signal is read on Tecan microplate reader. The measured luminescence correlates directly with cell number.
All data is normalized to the mean of eight DMSO high control wells on each plate. A four parameter curve fit of the following formula was then applied: Y=a+(b−a)/(1+(x/c)^d) Where ‘a’ is the minimum, ‘b’ is the maximum, ‘c’ is the pIC50 and ‘d’ is the Hill slope. […] Myc Reporter Assay

[2] = molecular target: BRD4-BD12 (1-477) (Homo sapiens (Human), UniProt O60885); experiment: Alphascreen binding assay BRD4-BD12; conditions: BRD4(1 2) H4; read-out: Biochemical activity (IC50 μM) BRD4(1 2) H4
Description: Binding of compounds of formula (I) with bromodomain 2, 3 4 was assessed using Alphascreen binding assay. The inhibition of the interaction between bromodomain and its acetylated target protein (Filippakopoulos P et al. 2012) was measured quantitatively using recombinant BRD proteins, an acetylated Histone 4 peptide and AlphaScreen™ technology. In absence of inhibition the BRD protein bound to AlphaScreen™ nickel chelate acceptor beads can interact with the acetylated Histone 4 peptide which is immobilized by the AlphaScreen™ Streptavidin coated beads. This interaction brings donor and acceptor beads in proximity. The close proximity allows the singlet oxygen produced by laser excitation of the donor beads to reach the acceptor beads and generate a luminescence signal.
Recombinant human bromodomains containing the N-terminal bromodomain (BRD2-BD1 (71-194), BRD3-BD1 (24-144) and BRD4-BD1 (44-164)) or dual bromodomains (BRD4-BD12 (1-477), BRD4-BD12 (1-472)) were prepared and purified as described in protein expression and purification session. The peptide is human Histone H41-21K5AcK8AcK12AcK16Ac-Biotin (Anaspec CA, USA).
Protocol for BRD2, BRD3 and BRD4 assay: All components are prepared in buffer composed of 50 mM HEPES pH 7.5, 100 mM NaCl, 0.01% bovine serum albumin (“BSA”), 0.01% Triton X-100, 2 mM dithiothreitol (“DTT”). 7 μL of Bromodomain protein and 7 μL of peptide are added to wells containing 1 μL of various concentrations of test compounds of formula (I) or DMSO vehicle in an Alphaplate (PerkinElmer GA, USA) and incubated for 1 hour at room temperature. 4 μL donor and acceptor bead mixture is then added with final concentrations of 7.5 μg/ml. 30 minutes after bead addition, Alpha signal is read on the Envision spectrometer (λEx 680 nm, λEm 520-620 nm). Final concentrations of bromodomain proteins and peptide are as shown below.
All data was normalized to the mean of 16 high and 16 low control wells on each plate. A four parameter curve fit of the following formula was then applied: Y=a+(b−a)/(1+(x/c)^d) Where ‘a’ is the minimum, ‘b’ is the maximum, ‘c’ is the pIC50 and ‘d’ is the Hill slope. Protein Expression and Purification
Recombinant human bromodomains containing the N-terminal bromodomain (BRD2-BD1 (71-194), BRD3-BD1 (24-144) and BRD4-BD1 (44-164)) or dual bromodomains (BRD4-BD12 (1-477), BRD4-BD12 (1-472)) were expressed in E. coli cells (in a modified pET vector) with an N-terminal six-His tag and purified using a combination of both IMAC (Ni-affinity) and size exclusion chromatography steps.
Recombinant BRD proteins were expressed using the E. coli strain BL21-CodonPlus (DE3) (Agilent Technologies CA, USA). Cells were grown in Terrific Broth (TB) media to an OD600 of 1.2 at 37° C. at which temperature was reduced to 25° C., protein was induced with 1.0 mM ispropyl-β-D-thiogalactopyranoside (“IPTG”) for 12-18 hours and harvested by centrifugation at 8000×g for 20 minutes. Cells were re-suspended in 0.1M K2PO4 pH 8.0, 250 mM NaCl, 10% Glycerol, 0.75% NP-40, 25 mM Imidazole, 5 mM beta-mercaptoethanol (“BME”) with 0.2 mg/ml Lysosyme, 2.0 mM phenylmethanesulfonyl fluoride (“PMSF”), 25 μg/ml DNAse I, incubated on ice for 30 minutes and lyzed with a cell disruptor (MicroFluidics MA, USA). The lysate was clarified by centrifugation at 20,000×g for 2 hours. The protein was captured with Ni-NTA resin (Life Technologies, USA). Contaminating proteins were washed off with 25 mM Tris-HCl pH 8.3, 250 mM NaCl, 12% Glycerol and 50 mM Imidazole. Following 3× wash steps, protein was eluted step wise using a 50 mM HEPES pH 7.5, 500 mM NaCl and 400 mM Imidazole. The protein was further purified using Gel Filtration column 26/600 Superdex 200 (GE Biosciences NJ, USA) in 50 mM HEPES pH 7.5, 250 mM NaCl. The protein was aliquoted and flash-frozen in liquid Nitrogen.

CC[C@@H](c1ccccn1)n1cc(-c2ccc(C3(C(=O)O)CC3)cc2)c2ncc(-c3c(C)noc3C)cc21 [P-0969, 1-[4-[6-(3,5-dimethylisoxazol-4-yl)-1-[(1S)-1-(2-pyridyl)propyl]pyrrolo[3,2-b]pyridin-3-yl]phenyl]cyclopropanecarboxylic acid]
IC50 ([1]; MV-4-11, 3d growth): < 1 µM
IC50 [2]: < 1 µM

Cc1noc(C)c1-c1cnc2c(-c3ccc(C(=O)O)cc3)cn(Cc3ccccc3C#N)c2c1 [P-0923, 4-[1-[(2-cyanophenyl)methyl]-6-(3,5-dimethylisoxazol-4-yl)pyrrolo[3,2-b]pyridin-3-yl]benzoic acid]
IC50 ([1]; MV-4-11, 3d growth): < 1 µM
IC50 [2]: < 1 µM

Cc1noc(C)c1-c1cnc2c(-c3ccc(C(=O)O)cc3)cn(CC3(C)CCCCC3)c2c1 [P-0912, 4-[6-(3,5-dimethylisoxazol-4-yl)-1-[(1-methylcyclohexyl)methyl]pyrrolo [3,2-b]pyridin-3-yl]benzoic acid]
IC50 ([1]; MV-4-11, 3d growth): < 1 µM
IC50 [2]: < 1 µM

Cc1noc(C)c1-c1ccc2c(-c3ccc(CC(=O)O)cc3)cn([C@@H](C)c3ccccn3)c2c1 [P-1031, 2-[4-[6-(3,5-dimethylisoxazol-4-yl)-1-[(1S)-1-(2-pyridyl)ethyl]indol-3-yl]phenyl]acetic acid]
IC50 ([1]; MV-4-11, 3d growth): < 1 µM
IC50 [2]: < 1 µM

Cc1ccc(-c2cn(CC3(C)CCOCC3)c3cc(-c4c(C)noc4C)cnc23)cn1 [P-0972, 3,5-dimethyl-4-[3-(6-methyl-3-pyridyl)-1-[(4-methyltetrahydropyran-4-yl)methyl]pyrrolo[3,2-b]pyridin-6-yl]isoxazole]
IC50 ([1]; MV-4-11, 3d growth): < 1 µM
IC50 [2]: < 1 µM

COC(=O)Cc1ccc(-c2cn(C(c3ccccn3)C3CCCC3)c3cc(-c4c(C)noc4C)cnc23)cc1 (centres unmarked) [P-0994, methyl 2-[4-[1-[cyclopentyl(2-pyridyl)methyl]-6-(3,5-dimethylisoxazol-4-yl)pyrrolo[3,2-b]pyridin-3-yl]phenyl]acetate]
IC50 ([1]; MV-4-11, 3d growth): < 1 µM
IC50 [2]: < 1 µM

COc1ccc(-c2cn([C@@H](C)c3ccccn3)c3cc(-c4c(C)noc4C)cnc23)cn1 [P-0975, 4-[3-(6-methoxy-3-pyridyl)-1-[(1S)-1-(2-pyridyl)ethyl]pyrrolo[3,2-b]pyridin-6-yl]-3,5-dimethyl-isoxazole]
IC50 ([1]; MV-4-11, 3d growth): < 1 µM
IC50 [2]: < 1 µM

Cc1noc(C)c1-c1cnc2c(-c3ccc(C4(C(=O)O)CC4)cc3)cn(Cc3ccccn3)c2c1 [P-0964, 1-[4-[6-(3,5-dimethylisoxazol-4-yl)-1-(2-pyridylmethyl)pyrrolo[3,2-b]pyridin-3-yl]phenyl]cyclopropanecarboxylic acid]
IC50 ([1]; MV-4-11, 3d growth): < 1 µM
IC50 [2]: < 1 µM

Cc1noc(C)c1-c1ccc2c(-c3cnn(C)c3)cn(C(c3ccccc3)c3ccccn3)c2c1 (centres unmarked) [P-1040, 3,5-dimethyl-4-[3-(1-methylpyrazol-4-yl)-1-[phenyl(2-pyridyl)methyl]indol-6-yl]isoxazole]
IC50 ([1]; MV-4-11, 3d growth): < 1 µM
IC50 [2]: < 1 µM

Cc1noc(C)c1-c1ccc2c(-c3ccc(C(=O)O)c(Cl)c3)cn(C(c3ccccc3)c3ccccn3)c2c1 (centres unmarked) [P-1047, 2-chloro-4-[6-(3,5-dimethylisoxazol-4-yl)-1-[phenyl(2-pyridyl)methyl]indol-3-yl]benzoic acid]
IC50 ([1]; MV-4-11, 3d growth): < 1 µM
IC50 [2]: < 1 µM

Cc1noc(C)c1-c1cnc2c(-c3ccc(C(=O)O)cc3)cn(Cc3ccccc3F)c2c1 [P-0926, 4-[6-(3,5-dimethylisoxazol-4-yl)-1-[(2-fluorophenyl)methyl]pyrrolo[3,2-b]pyridin-3-yl]benzoic acid]
IC50 ([1]; MV-4-11, 3d growth): < 1 µM
IC50 [2]: < 1 µM

CCOP(=O)(OCC)c1ccc(-c2cn(C(C)c3ccccc3)c3cc(-c4c(C)noc4C)cnc23)cc1 (centres unmarked) [P-0927, 4-[3-(4-diethoxyphosphorylphenyl)-1-(1-phenylethyl)pyrrolo[3,2-b]pyridin-6-yl]-3,5-dimethyl-isoxazole]
IC50 [1]: < 1 µM
IC50 [2]: < 1 µM

COC(=O)c1ccc(-c2cn(Cc3cnc(C)s3)c3cc(-c4c(C)noc4C)cnc23)cc1 [P-0957, methyl 4-[6-(3,5-dimethylisoxazol-4-yl)-1-[(2-methylthiazol-5-yl)methyl]pyrrolo[3,2-b]pyridin-3-yl]benzoate]
IC50 ([1]; MV-4-11, 3d growth): < 1 µM
IC50 [2]: < 1 µM

Cc1noc(C)c1-c1cnc2c(-c3ccc(C(C)(C)C#N)cc3)cn(CC3CCC(F)(F)CC3)c2c1 [P-0905, 2-[4-[1-[(4,4-difluorocyclohexyl)methyl]-6-(3,5-dimethylisoxazol-4-yl)pyrrolo[3,2-b]pyridin-3-yl]phenyl]-2-methyl-propanenitrile]
IC50 ([1]; MV-4-11, 3d growth): < 1 µM
IC50 [2]: < 1 µM

Cc1noc(C)c1-c1cnc2c(c1)c(P(=O)(c1ccccc1)c1ccccc1)cn2-c1ccc(C(=O)O)cc1 [P-0951, 4-[5-(3,5-dimethylisoxazol-4-yl)-3-diphenylphosphoryl-pyrrolo[2,3-b]pyridin-1-yl]benzoic acid]
IC50 ([1]; MV-4-11, 3d growth): < 1 µM
IC50 [2]: < 1 µM

Cc1noc(C)c1-c1cnc2c(-c3ccc(C(=O)O)cc3)cn(C(c3ccccn3)C3CCCCC3)c2c1 (centres unmarked) [P-1014, 4-[1-[cyclohexyl(2-pyridyl)methyl]-6-(3,5-dimethylisoxazol-4-yl)pyrrolo[3,2-b]pyridin-3-yl]benzoic acid]
IC50 ([1]; MV-4-11, 3d growth): < 1 µM
IC50 [2]: < 1 µM

COC(=O)c1ccc(-c2cn([C@H](c3ccccn3)C3CC3)c3cc(-c4c(C)noc4C)cnc23)cc1 [P-0989, methyl 4-[1-[(S)-cyclopropyl(2-pyridyl)methyl]-6-(3,5-dimethylisoxazol-4-yl)pyrrolo[3,2-b]pyridin-3-yl]benzoate]
IC50 ([1]; MV-4-11, 3d growth): < 1 µM
IC50 [2]: < 1 µM

COC(=O)c1ccc(-c2cn(Cc3ccccn3)c3cc(-c4c(C)noc4C)cnc23)cc1OC [P-0954, methyl 4-[6-(3,5-dimethylisoxazol-4-yl)-1-(2-pyridylmethyl)pyrrolo[3,2-b]pyridin-3-yl]-2-methoxy-benzoate]
IC50 [2]: < 1 µM
